Assay results from ChEMBL document CHEMBL6182912, “Development of Novel Phthalazinone-Triazole Hybrids as Potential Antidiabetic Agents Targeting GLUT4 Translocation in Skeletal Muscle” (J Med Chem, 2025).
The source made the active and inactive calls. No cut-off for these calls is given here.

Experiments:
[1] = molecular target: T1, Solute carrier family 2, facilitated glucose transporter member 4 (Rattus norvegicus) (UniProt P19357); assay: Modulation of GLUT4 translocation in rat L6-GLUT4myc skeletal muscle cells assessed as increase in surface GLUT4myc level by measuring fold stimulation at 10 uM measured after 16 hrs by O-phenylenediamine assay relative to control; type: cell-based; settings: filed as modulator
T1 sequence (whole entry): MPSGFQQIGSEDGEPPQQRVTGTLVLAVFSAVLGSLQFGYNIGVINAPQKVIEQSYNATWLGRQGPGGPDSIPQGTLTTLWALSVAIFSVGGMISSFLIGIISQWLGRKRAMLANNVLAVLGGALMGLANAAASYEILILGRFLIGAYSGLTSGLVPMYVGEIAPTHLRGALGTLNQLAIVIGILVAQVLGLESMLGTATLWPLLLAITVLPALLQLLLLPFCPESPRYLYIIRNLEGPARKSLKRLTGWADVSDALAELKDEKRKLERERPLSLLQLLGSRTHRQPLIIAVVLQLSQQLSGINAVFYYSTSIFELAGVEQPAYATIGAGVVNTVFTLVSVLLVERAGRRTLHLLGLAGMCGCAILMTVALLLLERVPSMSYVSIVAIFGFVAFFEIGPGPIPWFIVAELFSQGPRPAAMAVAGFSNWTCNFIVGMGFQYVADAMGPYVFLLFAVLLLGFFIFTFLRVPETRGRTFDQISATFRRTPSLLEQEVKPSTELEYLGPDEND

[2] = molecular target: T1, Solute carrier family 2, facilitated glucose transporter member 4 (Rattus norvegicus); assay: Modulation of GLUT4 translocation in rat L6-GLUT4myc skeletal muscle cells assessed as increase in surface GLUT4myc level measured after 16 hrs by O-phenylenediamine assay; type: cell-based; settings: filed as modulator, dose 5-25 µM
[3] = molecular target: T1, Solute carrier family 2, facilitated glucose transporter member 4 (Rattus norvegicus); assay: Modulation of insulin-stimulated GLUT4 translocation in rat L6-GLUT4myc skeletal muscle cells assessed as increase in surface GLUT4myc level at 50 nM pretreated with compound for 16 hrs and cultured final 3 hrs of compound treatment in serum-starved medium followed by insulin addition measured after 20 mins by O-phenylenediamine assay; type: cell-based; settings: time 980.0 min
[4] = molecular target: T1, Solute carrier family 2, facilitated glucose transporter member 4 (Rattus norvegicus); assay: Modulation of insulin-stimulated GLUT4 translocation in rat L6-GLUT4myc skeletal muscle cells assessed as increase in AKT phosphorylation Ser473 pretreated with compound for 16 hrs followed by insulin addition measured after 10 mins by Western blot analysis; type: cell-based; settings: time 970.0 min
[5] = molecular target: T1, Solute carrier family 2, facilitated glucose transporter member 4 (Rattus norvegicus); assay: Modulation of GLUT4 translocation in rat L6-GLUT4myc skeletal muscle cells assessed as increase in surface GLUT4myc level by measuring fold stimulation at 1 mM measured after 1 hr by O-phenylenediamine assay relative to control; type: cell-based; settings: filed as modulator
[6] = molecular target: T1, Solute carrier family 2, facilitated glucose transporter member 4 (Rattus norvegicus); assay: Modulation of GLUT4 translocation in rat L6-GLUT4myc skeletal muscle cells assessed as increase in surface GLUT4myc level by measuring fold stimulation at 500 uM measured after 16 hrs by O-phenylenediamine assay relative to control; type: cell-based; settings: filed as modulator
Rattus norvegicus [7] = assay: Anti-hyperglycemic effect in STZ-induced diabetic male Sprague-Dawley rat assessed as reduction in blood glucose level at 100 mg/kg, po; type: functional, organism-based; settings: time 30-300 min
L6-GLUT4myc [8] = assay: Effect on AKT2 mRNA level in rat L6-GLUT4myc at 10 uM incubated for 16 hrs by RT-PCR analysis; type: functional, cell-based
[9] = Stability in rat plasma assessed as compound remaining measured after 120 mins by UPLC analysis; type: ADME, cell-free; settings: read-out: Stability
[10] = molecular target: T1, Solute carrier family 2, facilitated glucose transporter member 4 (Rattus norvegicus); assay: Modulation of insulin-stimulated GLUT4 translocation in rat L6-GLUT4myc skeletal muscle cells assessed as increase in AKT phosphorylation Ser473 at 10 uM pretreated with compound for 16 hrs followed by insulin addition measured after 10 mins by Western blot analysis; type: cell-based; settings: filed as modulator, time 970.0 min
[11] = molecular target: T1, Solute carrier family 2, facilitated glucose transporter member 4 (Rattus norvegicus); assay: Modulation of GLUT4 translocation in rat L6-GLUT4myc skeletal muscle cells assessed as increase in GLUT4 mRNA level at 10 uM incubated for 16 hrs by RT-PCR analysis; type: cell-based; settings: filed as modulator
[12] = Stability in SGF at pH 1.2 assessed as compound remaining measured after 120 mins by UPLC analysis; type: physicochemical; settings: read-out: Stability
L6-GLUT4myc [13] = assay: Effect on IRS1 mRNA level in rat L6-GLUT4myc at 10 uM incubated for 16 hrs by RT-PCR analysis; type: functional, cell-based
[14] = molecular target: T1, Solute carrier family 2, facilitated glucose transporter member 4 (Rattus norvegicus); assay: Modulation of insulin-stimulated GLUT4 translocation in rat L6-GLUT4myc skeletal muscle cells assessed as increase in AKT phosphorylation Ser473 at 10 uM pretreated with compound and wortmannin for 16 hrs followed by insulin addition measured after 10 mins by Western blot analysis; type: cell-based; settings: time 970.0 min
[15] = Stability in SPF at pH 7.4 assessed as compound remaining measured after 120 mins by UPLC analysis; type: physicochemical; settings: read-out: Stability
[16] = Stability in SIF at pH 6.8 assessed as compound remaining measured after 120 mins by UPLC analysis; type: physicochemical; settings: read-out: Stability
Rattus norvegicus [17] = assay: Anti-hyperglycemic effect in STZ-induced diabetic male Sprague-Dawley rat assessed as reduction in blood glucose level at 100 mg/kg, po measured after 5 hrs relative to control; type: functional; set-up: scale not given: the % may be the effect or the level left
[18] = molecular target: T1, Solute carrier family 2, facilitated glucose transporter member 4 (Rattus norvegicus); assay: Modulation of insulin-stimulated GLUT4 translocation in rat L6-GLUT4myc skeletal muscle cells assessed as increase in surface GLUT4myc level at 10 uM pretreated with compound overnight and cultured final 3 hrs of compound treatment in serum-starved medium followed by insulin addition measured after 20 mins by O-phenylenediamine assay; type: cell-based; settings: filed as modulator
[19] = molecular target: T1, Solute carrier family 2, facilitated glucose transporter member 4 (Rattus norvegicus); assay: Modulation of GLUT4 translocation in rat L6-GLUT4myc skeletal muscle cells assessed as increase in AMPK-alpha phosphorylation at Thr172 at 10 uM incubated for 16 hrs by Western blot analysis; type: cell-based; settings: filed as modulator
[20] = molecular target: T1, Solute carrier family 2, facilitated glucose transporter member 4 (Rattus norvegicus); assay: Modulation of insulin-stimulated GLUT4 translocation in rat L6-GLUT4myc skeletal muscle cells assessed as increase in surface GLUT4myc level at 10 uM pretreated with compound and wortmannin for 16 hrs and cultured final 3 hrs of compound treatment in serum-starved medium followed by insulin addition measured after 20 mins by O-phenylenediamine assay; type: cell-based; settings: time 980.0 min
Rattus norvegicus [21] = assay: Anti-hyperglycemic effect in STZ-induced diabetic male Sprague-Dawley rat assessed as reduction in blood glucose level at 300 mg/kg, po measured after 5 hrs relative to control; type: functional; set-up: scale not given: the % may be the effect or the level left

Compound: COc1ccc(-n2cc(CNC(=O)c3ccc(Cc4n[nH]c(=O)c5ccccc45)cc3)nn2)cc1
- fold change (FC) [1]: 1.12

Compound: O=C(NCc1cn(-c2ccc(F)cc2)nn1)c1ccc(Cc2n[nH]c(=O)c3ccccc23)cc1
- fold change (FC) [1]: 1.11

Compound: O=C(NCc1cn(-c2ccccc2)nn1)c1ccc(Cc2n[nH]c(=O)c3ccccc23)cc1F
- fold change (FC) [1]: 1.36

Compound: COc1ccc(-n2cc(CNC(=O)c3cc(Cc4n[nH]c(=O)c5ccccc45)ccc3F)nn2)cc1
- Activity [2]: Dose-dependent-effect
- fold change (FC) [1]: 1.92

Compound: COc1ccccc1-n1cc(CNC(=O)c2cc(Cc3n[nH]c(=O)c4ccccc34)ccc2F)nn1
- fold change (FC) [1]: 1.01

Compound: O=C(NCc1cn(-c2ccc(F)cc2F)nn1)c1cc(Cc2n[nH]c(=O)c3ccccc23)ccc1F
- fold change (FC) [1]: 1.75

Compound: CC(C)c1ccc(-n2cc(CNC(=O)c3cc(Cc4n[nH]c(=O)c5ccccc45)ccc3F)nn2)cc1
- fold change (FC) [1]: 1.1

Compound: O=C(NCc1cn(-c2ccc(C(F)(F)F)cc2)nn1)c1cc(Cc2n[nH]c(=O)c3ccccc23)ccc1F
- fold change (FC) [1]: 1.77

Compound: O=C(OCc1cn(-c2ccc(Br)cc2)nn1)c1ccc(Cc2n[nH]c(=O)c3ccccc23)cc1
- fold change (FC) [1]: 1.54

Compound: O=C(NCc1cn(-c2ccccc2F)nn1)c1cc(Cc2n[nH]c(=O)c3ccccc23)ccc1F
- fold change (FC) [1]: 0.86

Compound: O=C(NCc1cn(-c2ccc(Cl)c(Cl)c2)nn1)c1cc(Cc2n[nH]c(=O)c3ccccc23)ccc1F
- fold change (FC) [1]: 1.49

Compound: CC(C)c1ccc(-n2cc(COC(=O)c3cc(Cc4n[nH]c(=O)c5ccccc45)ccc3F)nn2)cc1
- fold change (FC) [1]: 1.52

Compound: Cc1ccc(-n2cc(COC(=O)c3ccc(Cc4n[nH]c(=O)c5ccccc45)cc3)nn2)cc1
- fold change (FC) [1]: 0.9

Compound: O=C(OCc1cn(-c2ccc(Br)cc2)nn1)c1cc(Cc2n[nH]c(=O)c3ccccc23)ccc1F
- fold change (FC) [1]: 1.39

Compound: O=C(NCc1cn(-c2cccc3ccccc23)nn1)c1cc(Cc2n[nH]c(=O)c3ccccc23)ccc1F
- fold change (FC) [1]: 1.15

Compound: O=C(NCc1cn(-c2ccccc2)nn1)c1ccc(Cc2n[nH]c(=O)c3ccccc23)cc1
- fold change (FC) [1]: 1.48

Compound: COC[C@H]1OC(=O)c2coc3c2[C@@]1(C)C1=C(C3=O)[C@@H]2CCC(=O)[C@@]2(C)C[C@H]1OC(C)=O
- Activity [3]: inactive
- Activity [4]: inactive

Compound: O=C(NCc1cn(-c2ccc(Cl)cc2)nn1)c1cc(Cc2n[nH]c(=O)c3ccccc23)ccc1F
- fold change (FC) [1]: 1.53

Compound: O=C(NCc1cn(-c2ccc(Br)cc2)nn1)c1ccc(Cc2n[nH]c(=O)c3ccccc23)cc1
- fold change (FC) [1]: 0.89

Compound: O=C(NCc1cn(-c2ccc(Cl)cc2)nn1)c1ccc(Cc2n[nH]c(=O)c3ccccc23)cc1
- fold change (FC) [1]: 1.09

Compound: NC(=O)c1ncn([C@@H]2O[C@H](CO)[C@@H](O)[C@H]2O)c1N
- fold change (FC) [5]: 1.56

Compound: O=C(OCc1cn(-c2ccc(F)cc2)nn1)c1cc(Cc2n[nH]c(=O)c3ccccc23)ccc1F
- fold change (FC) [1]: 1.03

Compound: COc1ccc(-n2cc(COC(=O)c3cc(Cc4n[nH]c(=O)c5ccccc45)ccc3F)nn2)cc1
- fold change (FC) [1]: 1.31

Compound: Cc1ccc(-n2cc(CNC(=O)c3ccc(Cc4n[nH]c(=O)c5ccccc45)cc3)nn2)cc1
- fold change (FC) [1]: 0.77

Compound: COc1cccc(-n2cc(CNC(=O)c3cc(Cc4n[nH]c(=O)c5ccccc45)ccc3F)nn2)c1
- fold change (FC) [1]: 1.4

Compound: O=C(NCc1cn(-c2ccc(OC(F)(F)F)cc2)nn1)c1ccc(Cc2n[nH]c(=O)c3ccccc23)cc1
- fold change (FC) [1]: 1.04

Compound: COc1ccc(OC)c(-n2cc(CNC(=O)c3cc(Cc4n[nH]c(=O)c5ccccc45)ccc3F)nn2)c1
- fold change (FC) [1]: 1.29

Compound: O=C(OCc1cn(-c2ccccc2)nn1)c1cc(Cc2n[nH]c(=O)c3ccccc23)ccc1F
- fold change (FC) [6]: 0.97

Compound: O=C(NCc1cn(-c2cccc(F)c2)nn1)c1cc(Cc2n[nH]c(=O)c3ccccc23)ccc1F
- fold change (FC) [1]: 0.84

Compound: Cc1ccc(-n2cc(CNC(=O)c3cc(Cc4n[nH]c(=O)c5ccccc45)ccc3F)nn2)cc1
- Activity [2]: Dose-dependent-effect
- fold change (FC) [1]: 1.92

Compound: COc1cccc(Cl)c1-n1cc(CNC(=O)c2cc(Cc3n[nH]c(=O)c4ccccc34)ccc2F)nn1
- fold change (FC) [1]: 1.14

Compound: O=C(NCc1cn(-c2ccc(F)cc2)nn1)c1cc(Cc2n[nH]c(=O)c3ccccc23)ccc1F
- fold change (FC) [1]: 1.98

Compound: O=C(OCc1cn(-c2ccc(F)cc2)nn1)c1ccc(Cc2n[nH]c(=O)c3ccccc23)cc1
- fold change (FC) [1]: 0.99

Compound: O=C(NCc1cn(-c2ccc(Br)cc2)nn1)c1cc(Cc2n[nH]c(=O)c3ccccc23)ccc1F
- fold change (FC) [1]: 1.87

Compound: O=C(OCc1cn(-c2ccccc2)nn1)c1ccc(Cc2n[nH]c(=O)c3ccccc23)cc1
- fold change (FC) [1]: 0.94

Compound: Cc1ccc(-n2cc(COC(=O)c3cc(Cc4n[nH]c(=O)c5ccccc45)ccc3F)nn2)cc1
- fold change (FC) [1]: 0.98

Compound: O=C(NCc1cn(-c2ccccc2)nn1)c1cc(Cc2n[nH]c(=O)c3ccccc23)ccc1F
- Activity (Rattus norvegicus [7]): Time-dependent-effect
- Activity (L6-GLUT4myc [8]): No effect
- remaining at 2 h [9]: ≤ 60%
- Activity [10]: Active
- Activity [2]: Dose-dependent-effect
- Activity [11]: Active
- remaining at 2 h [12]: ≤ 60%
- Activity (L6-GLUT4myc [13]): No effect
- Activity [14]: inactive
- fold change (FC) [1]: 1.93
- remaining at 2 h [15]: ≤ 60%
- remaining at 2 h [16]: ≤ 60%
- Activity (Rattus norvegicus [17]): ~38.7%
- Activity [18]: Active
- Activity [19]: Active
- Activity [20]: inactive

Compound: CN(C)C(=N)NC(=N)N [METFORMIN]
- fold change (FC) [6]: 1.65
- Activity (Rattus norvegicus [21]): 64.7%

Compound: C#CCNC(=O)c1ccc(Cc2n[nH]c(=O)c3ccccc23)cc1
- fold change (FC) [1]: 1.17

Compound: O=C(NCc1cn(-c2ccc(OC(F)(F)F)cc2)nn1)c1cc(Cc2n[nH]c(=O)c3ccccc23)ccc1F
- fold change (FC) [1]: 1.59

Compound: COc1cccc(OC)c1-n1cc(CNC(=O)c2cc(Cc3n[nH]c(=O)c4ccccc34)ccc2F)nn1
- fold change (FC) [1]: 1.31

Compound: COc1cc(-n2cc(CNC(=O)c3cc(Cc4n[nH]c(=O)c5ccccc45)ccc3F)nn2)cc(OC)c1OC
- fold change (FC) [1]: 1.08
